Measurements published in article PMC11645656, “MRGPRX4 mediates phospho-drug associated pruritus in a humanized mouse model” (Science translational medicine, 2024).
Several values for one entry are separate records, joined by “and”; a condition that tells them apart may be missing. Equal values may be shown once. Read-outs that look alike come from different tables or passages of the source.

Molecular target: T1, MRGPRX4 (S83) (Homo sapiens, UniProt Q96LA9, L83S)
T1 construct: expressed in transfected cells
T1 sequence (Q96LA9 whole entry L83S): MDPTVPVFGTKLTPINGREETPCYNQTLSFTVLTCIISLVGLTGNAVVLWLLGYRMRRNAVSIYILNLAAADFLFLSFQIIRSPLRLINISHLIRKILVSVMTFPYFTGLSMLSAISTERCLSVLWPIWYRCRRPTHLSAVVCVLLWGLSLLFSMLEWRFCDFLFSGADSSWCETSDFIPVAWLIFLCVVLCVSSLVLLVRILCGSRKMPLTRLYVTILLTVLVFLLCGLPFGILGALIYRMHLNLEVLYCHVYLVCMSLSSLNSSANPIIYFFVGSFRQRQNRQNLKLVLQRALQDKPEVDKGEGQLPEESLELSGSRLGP
Assay: EC50 determination, intracellular calcium mobilization in MRGPRX4 stably expressed HEK293 cells (FLIPR Calcium 5, Flexstation-3)
Assay type: cell-based
Parameters: Fig. 1D dose-response, calcium mobilization response (individual replicate) / calcium mobilization response (Fig. 1D dose-response raw data): unit not given here
Conditions: for EC50: read-out: EC50; for Hill coefficient: dose-response curve fitting; for calcium mobilization response (Fig. 1D dose-response raw data): individual replicate values
Description: HEK293 cells and MRGPRX4 stably expressed HEK293 cells were seeded in 100 μl culture media on 96-well plates at a density of 40,000 cells per well and incubated overnight. The next day, the media were replaced with a dye-loading solution from the FLIPR Calcium 5 assay kit (Molecular Devices), diluted in Hank's Balanced Salt Solution (HBSS) with 20 mM HEPES, pH 7.4. After 1 h of incubation at 37°C, cells were allowed to recover for 10 min in the dark at room temperature prior to performing intracellular calcium mobilization assay in a Flexstation-3 instrument with SoftMax®Pro 7.1 software (Molecular Devices). Serial concentrations of tested drugs were prepared in HBSS/HEPES solution at 3X concentration. […] Compounds were tested in triplicates and the signals were averaged. Responses were determined by subtracting the minimum signal (at the baseline before adding the drug) from the maximum signal (obtained after drug stimulation). Four-parameter logistic (4PL) curve fit was used to plot the dose-response curves. […] Both dose-response curve fitting and EC50s calculation are computed with GraphPad Prism software (version: 6.o or above).

[1] = MRGPRX4 stably expressed HEK293 cells, calcium mobilization

Structure (SMILES)	EC50 [1] [nM]	Hill coefficient (table S1)	calcium mobilization response (Fig. 1D dose-response raw data) (concentration 4.88281e-7 M)	calcium mobilization response (Fig. 1D dose-response raw data) (concentration 9.76563e-7 M)	calcium mobilization response (Fig. 1D dose-response raw data) (concentration 1.95313e-6 M)	calcium mobilization response (Fig. 1D dose-response raw data) (concentration 3.90625e-6 M)	calcium mobilization response (Fig. 1D dose-response raw data) (concentration 7.8125e-6 M)	calcium mobilization response (Fig. 1D dose-response raw data) (concentration 1.5625e-5 M)	calcium mobilization response (Fig. 1D dose-response raw data) (concentration 3.125e-5 M)	calcium mobilization response (Fig. 1D dose-response raw data) (concentration 6.25e-5 M)	calcium mobilization response (Fig. 1D dose-response raw data) (concentration 0.00025 M)	calcium mobilization response (Fig. 1D dose-response raw data) (concentration 0.0005 M)	also measured
C[C@]12CCC(=O)C=C1CC[C@@H]1[C@@H]2[C@@H](O)C[C@@]2(C)[C@H]1CC[C@]2(O)C(=O)COC(=O)CCC(=O)O [Hydrocortisone 21-hemisuccinate]	–	–	–	–	–	–	–	–	–	–	–	–	EC50 (table S1): > 500000 nM
C[C@]12CCC(=O)C=C1CC[C@@H]1[C@@H]2[C@@H](O)C[C@@]2(C)[C@H]1CC[C@]2(O)C(=O)COP(=O)([O-])[O-].[Na+].[Na+] [Hydrocortisone sodium phosphate]	328	1.411	–	–	–	–	–	–	–	–	–	–	–
O=C1NC(=O)C(c2ccccc2)(c2ccc(O)cc2)N1 (centres unmarked) [Hydroxyphenytoin]	–	–	-38.335 and -44.136 and -38.604 and -53.703 and -53.375	-21.881 and -18.856 and -41.417 and -3.943 and -41.401	-33.904 and -36.161 and -55.798 and -55.451 and -16.637	-41.290 and -41.879 and -47.340 and -95.401 and -28.834	-43.390 and -45.131 and -40.251 and -36.055 and -69.327	-49.874 and -56.147 and -54.231 and -13.701 and -87.936	-55.112 and -52.780 and -54.634 and -28.441 and -50.624	-46.992 and -52.460 and -54.562 and -23.886 and -26.540	-50.524 and -46.583 and -49.203 and -70.603 and -7.273	-43.005 and -35.783 and -32.491 and -3.926 and -40.291	Fig. 1D dose-response, calcium mobilization response (individual replicate) (Concentration 9.76563e-7 M): -13.997 and -18.908 and -71.107 and -31.060; Fig. 1D dose-response, calcium mobilization response (individual replicate) (Concentration 1.95313e-6 M): -36.810 and -38.751 and -15.180 and -28.223; Fig. 1D dose-response, calcium mobilization response (individual replicate) (Concentration 3.90625e-6 M): -53.775 and -34.726 and -87.092 and -4.044; Fig. 1D dose-response, calcium mobilization response (individual replicate) (Concentration 7.8125e-6 M): -6.273 and -4.175 and -11.050 and -115.284; Fig. 1D dose-response, calcium mobilization response (individual replicate) (Concentration 1.5625e-5 M): -23.391 and -58.915 and -49.315 and -20.542; Fig. 1D dose-response, calcium mobilization response (individual replicate) (Concentration 3.125e-5 M): -58.615 and -86.247 and -12.733 and -61.272; Fig. 1D dose-response, calcium mobilization response (individual replicate) (Concentration 6.25e-5 M): -83.462 and -33.574 and -53.783 and -75.169; Fig. 1D dose-response, calcium mobilization response (individual replicate) (Concentration 0.00025 M): -7.298 and -62.458 and -53.853 and -44.871; Fig. 1D dose-response, calcium mobilization response (individual replicate) (Concentration 0.0005 M): -68.434 and -44.648 and -66.219 and -35.443; Fig. 1D dose-response, calcium mobilization response (individual replicate) (Concentration 0.001 M): -67.062 and -39.432 and -24.454 and -47.392
CCC1(c2ccccc2)NC(=O)NC1=O (centres unmarked) [Phenylethylhydantoin]	–	–	-36.084 and -46.830 and -25.168 and -25.995 and -41.232 and -40.854 and -21.141 and -50.216 and -36.724	-38.906 and -40.253 and -36.747 and -35.963 and -45.530 and -34.413 and -90.977 and -3.770 and -21.159	-39.850 and -47.267 and -41.649 and -23.282 and -47.762 and -57.722 and -64.532 and -47.904 and -16.330	-41.691 and -47.727 and -40.039 and -70.885 and -55.070 and -3.502 and -50.619 and -10.963 and -67.875	-54.750 and -48.340 and -51.910 and -49.343 and -57.168 and -48.489 and -88.910 and -37.952 and -28.139	-44.078 and -57.965 and -55.228 and -49.591 and -44.073 and -63.607 and -50.842 and -52.493 and -53.936	-43.665 and -49.381 and -54.677 and -65.107 and -76.615 and -6.000 and -68.649 and -47.158 and -31.916	-55.764 and -53.161 and -56.227 and -7.830 and -129.161 and -28.161 and -12.225 and -71.995 and -80.931	-45.731 and -49.520 and -42.661 and -67.761 and -17.367 and -52.783 and -55.357 and -16.011 and -66.544	-37.983 and -36.120 and -36.080 and -77.623 and -5.808 and -26.753 and -42.653 and -37.379 and -30.151	–
C[C@]12C=CC(=O)C=C1CC[C@@H]1[C@@H]2[C@@H](O)C[C@@]2(C)[C@H]1CC[C@]2(O)C(=O)COP(=O)(O)O [Prednisolone phosphate]	267	0.753	–	–	–	–	–	–	–	–	–	–	–
